Data published in patent US20090217402A1, “METHODS AND COMPOSITIONS FOR MODULATING THE ACTIVITY OF PEPTIDASES IN MACROPHAGE AND MACROPHAGE-LIKE CELLS” (Emory University, priority 2005, published 2009).
“Also recorded” adds a separate entry of the source.

Test system: B16-F10 melanoma cells
Experiment: B16-F10 melanoma tumor growth in wild type and ACE 10/10 mice with co-administered drug
Type: in vivo, mouse
Settings: intradermal B16-F10 melanoma
Procedure: Quantitation of B16-F10 tumor growth in wild type and ACE 10/10 mice was also conducted between groups in which the ACE inhibitor captopril was also administered. […] This experiment establishes that it is the presence of ACE in the ACE 10/10 mice that is important in the observed effects on tumor growth compared to wild-type mice.
B16-F10 tumor protocol. B16-F10 melanoma cell line was obtained from ATCC (American Type Culture Collection, Manassas, Va., USA). Cells were cultured in DMEM supplemented with 4 mM L-glutamine, 4.5 g/l glucose, 10% FBS, and antibiotics under humidified air with 5% CO2 at 37° C. […] The supernatant was removed, cell pellets were resuspended in PBS, and the cell number was counted.
Mice aged 8 to 12 weeks received exponentially growing cells (1×10^6) interdermally into the dorsal skin using a disposable 27-gauge needle under anesthesia (28 mg/kg avertin, intraperitoneally). Measurements of tumor size (longest and shortest diameters) were done using calipers at the 11th and 14th day, and body weight was measured at the day of inoculation (Day 0) and at harvesting (the 14th day), respectively. Tumor volume was calculated by the formula for a prolate spheroid according to the equation (L [longest diameter] H S2 [shortest diameter] H 0.52)=tumor volume.

Structure (SMILES)	B16-F10 tumor growth (resistance of ACE 10/10 mice to melanoma)
C[C@H](CS)C(=O)N1CCC[C@H]1C(=O)O [captopril]	comparable to wild-type mice in terms of susceptibility to tumor growth
CCCCc1nc(Cl)c(CO)n1Cc1ccc(-c2ccccc2-c2nn[nH]n2)cc1 [losartan]	does not inhibit the ability of the ACE 10/10 mice to resist melanoma; also recorded: did not inhibit the ability of the ACE 10/10 mice to resist melanoma growth
